{"source": "paper PMC8086025", "about": "“A benzopyran with antiarrhythmic activity is an inhibitor of Kir3.1-containing potassium channels” (The Journal of Biological Chemistry, 2021)", "key": {"Histamine H2": {"molecular_target": "T1, Histamine H2 (Homo sapiens, UniProt P25021)", "T1 construct": "expressed in transfected cells; host or cells: CHO cells", "test": "Radioligand binding, [125I]APT", "details": "read-out: % Specific Binding at 10 µM"}, "Kir3.1(T143A)/4": {"molecular_target": "Kir3.1(T143A)/4 (Homo sapiens, UniProt P48544+P48549, T143A)", "sequence (P48549 whole entry T143A, one chain of several)": "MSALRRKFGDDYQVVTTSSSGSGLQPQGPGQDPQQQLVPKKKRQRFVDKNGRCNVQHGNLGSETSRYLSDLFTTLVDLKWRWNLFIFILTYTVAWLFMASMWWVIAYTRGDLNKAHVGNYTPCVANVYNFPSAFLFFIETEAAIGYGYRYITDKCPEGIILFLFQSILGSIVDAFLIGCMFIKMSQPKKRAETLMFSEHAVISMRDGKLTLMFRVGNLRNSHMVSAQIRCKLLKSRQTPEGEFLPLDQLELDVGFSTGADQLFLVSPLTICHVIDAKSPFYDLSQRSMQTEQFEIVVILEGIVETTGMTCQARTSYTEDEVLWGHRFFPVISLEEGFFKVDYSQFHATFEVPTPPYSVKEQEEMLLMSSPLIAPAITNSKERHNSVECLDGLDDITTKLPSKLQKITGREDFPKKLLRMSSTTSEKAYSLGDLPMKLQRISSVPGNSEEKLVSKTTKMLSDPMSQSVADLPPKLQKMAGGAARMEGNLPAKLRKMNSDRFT", "assay_type": "cell-based", "details": "1 μM, TEVC"}, "Kir3.1(E141A)/4": {"molecular_target": "T2, Kir3.1(E141A)/4 (Homo sapiens, UniProt P48544+P48549, E141A)", "T2 construct": "expressed in transfected cells; host or cells: Xenopus laevis oocytes (cRNA injection)", "T2 sequence (P48549 whole entry E141A, one chain of several)": "as the sequence (P48549 whole entry T143A, one chain of several) above, with E141A, A143T counted along it", "test": "TEVC in Xenopus oocytes, Kir3.1(E141A)/4", "assay_type": "cell-based", "details": "1 μM"}, "[1]": {"test_system": "Kir2.1, Kir2.3, Kir3.1∗, Kir3.2∗, Kir3.4∗, Kir3.1∗/Kir3.2 and Kir3.1∗/Kir3.4", "test": "TEVC in Xenopus oocytes, selectivity over other Kir channels", "assay_type": "cell-based", "details": "1 μM"}, "Nav": {"test_system": "Nav", "test": "Radioligand binding, rat cerebral cortex"}, "wild-type Kir3.4 channel": {"molecular_target": "T3, wild-type Kir3.4 channel (Homo sapiens, UniProt P48544)", "T3 construct": "expressed in transfected cells; host or cells: Xenopus laevis oocytes (cRNA injection)", "test": "TEVC in Xenopus oocytes, wild-type Kir3.4", "assay_type": "cell-based", "details": "1 μM", "protocol": "(§1) X. laevis oocytes were isolated and microinjected as previously described ([6]). Human Kir3.1, mouse Kir3.2, and human Kir3.4 DNA constructs were used for electrophysiology experiments. All cRNA constructs were injected in the amount of 2 ng per oocyte. Injected oocytes were incubated for 2 to 3 days at 18 °C to allow for expression. Whole-cell oocyte currents were then measured using a GeneClamp 500 amplifier (Axon Instruments). Microelectrodes had resistances of 0.5 to 1 megohm using a 3M KCl solution in 1.4% agarose. Oocytes were perfused with a low K^+ (LK) solution ND96 (2 mM KCl, 96 mM NaCl, 1 mM MgCl2, 1.8 mM CaCl2, 5 mM HEPES-Na) to establish a baseline for the recordings. Basal current was measured in a high potassium (HK) solution ND96K (96 mM KCl, 10 mM HEPES-K, 1 mM MgCl2, 1.8 mM CaCl2). To block the current, the oocyte chamber was perfused with 4 mM BaCl2 in ND96K. Only the Barium-sensitive current was used for statistical analysis. To measure the inhibitory activity of the channels, 1 μM BP-G1 in ND96K (HK) was used. Typically, oocytes were held at 0 mV (EK) and the current was monitored constantly using a ramp protocol with a command potential from −80 to +80 mV. Current amplitude was measured at the end of a 1 s sweep. All currents were analyzed when they reached steady state. Error bars in the figures represent SD (N > 4)."}, "Adenosine A1": {"molecular_target": "T4, Adenosine A1 (Homo sapiens, UniProt P30542)", "T4 construct": "expressed in transfected cells; host or cells: CHO cells", "test": "Radioligand binding, [3H]DPCPX", "details": "read-out: % Specific Binding at 10 µM"}, "[2]": {"test": "Plasma protein binding, dog", "assay_type": "in vitro ADME", "details": "read-out: Dog PPB (converted)"}, "[3]": {"test": "Rat PK, IV/PO cross over and brain penetration", "assay_type": "in vivo"}, "Kir6.1/SUR2B": {"molecular_target": "Kir6.1/SUR2B (Homo sapiens, UniProt O60706+Q15842)", "sequence (Q15842 whole entry)": "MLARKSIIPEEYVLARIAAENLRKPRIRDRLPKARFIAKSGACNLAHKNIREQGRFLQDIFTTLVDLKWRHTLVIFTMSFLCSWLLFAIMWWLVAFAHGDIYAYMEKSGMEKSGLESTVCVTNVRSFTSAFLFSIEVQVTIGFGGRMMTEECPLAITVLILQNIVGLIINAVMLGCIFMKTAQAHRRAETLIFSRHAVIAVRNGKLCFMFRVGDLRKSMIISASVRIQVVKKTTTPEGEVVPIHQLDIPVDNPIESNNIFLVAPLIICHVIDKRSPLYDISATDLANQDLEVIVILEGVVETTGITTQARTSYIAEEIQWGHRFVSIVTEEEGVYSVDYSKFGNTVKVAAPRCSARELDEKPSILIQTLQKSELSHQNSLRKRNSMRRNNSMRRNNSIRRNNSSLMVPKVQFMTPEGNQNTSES", "sequence (O60706 1-1549 isoform O60706-2)": "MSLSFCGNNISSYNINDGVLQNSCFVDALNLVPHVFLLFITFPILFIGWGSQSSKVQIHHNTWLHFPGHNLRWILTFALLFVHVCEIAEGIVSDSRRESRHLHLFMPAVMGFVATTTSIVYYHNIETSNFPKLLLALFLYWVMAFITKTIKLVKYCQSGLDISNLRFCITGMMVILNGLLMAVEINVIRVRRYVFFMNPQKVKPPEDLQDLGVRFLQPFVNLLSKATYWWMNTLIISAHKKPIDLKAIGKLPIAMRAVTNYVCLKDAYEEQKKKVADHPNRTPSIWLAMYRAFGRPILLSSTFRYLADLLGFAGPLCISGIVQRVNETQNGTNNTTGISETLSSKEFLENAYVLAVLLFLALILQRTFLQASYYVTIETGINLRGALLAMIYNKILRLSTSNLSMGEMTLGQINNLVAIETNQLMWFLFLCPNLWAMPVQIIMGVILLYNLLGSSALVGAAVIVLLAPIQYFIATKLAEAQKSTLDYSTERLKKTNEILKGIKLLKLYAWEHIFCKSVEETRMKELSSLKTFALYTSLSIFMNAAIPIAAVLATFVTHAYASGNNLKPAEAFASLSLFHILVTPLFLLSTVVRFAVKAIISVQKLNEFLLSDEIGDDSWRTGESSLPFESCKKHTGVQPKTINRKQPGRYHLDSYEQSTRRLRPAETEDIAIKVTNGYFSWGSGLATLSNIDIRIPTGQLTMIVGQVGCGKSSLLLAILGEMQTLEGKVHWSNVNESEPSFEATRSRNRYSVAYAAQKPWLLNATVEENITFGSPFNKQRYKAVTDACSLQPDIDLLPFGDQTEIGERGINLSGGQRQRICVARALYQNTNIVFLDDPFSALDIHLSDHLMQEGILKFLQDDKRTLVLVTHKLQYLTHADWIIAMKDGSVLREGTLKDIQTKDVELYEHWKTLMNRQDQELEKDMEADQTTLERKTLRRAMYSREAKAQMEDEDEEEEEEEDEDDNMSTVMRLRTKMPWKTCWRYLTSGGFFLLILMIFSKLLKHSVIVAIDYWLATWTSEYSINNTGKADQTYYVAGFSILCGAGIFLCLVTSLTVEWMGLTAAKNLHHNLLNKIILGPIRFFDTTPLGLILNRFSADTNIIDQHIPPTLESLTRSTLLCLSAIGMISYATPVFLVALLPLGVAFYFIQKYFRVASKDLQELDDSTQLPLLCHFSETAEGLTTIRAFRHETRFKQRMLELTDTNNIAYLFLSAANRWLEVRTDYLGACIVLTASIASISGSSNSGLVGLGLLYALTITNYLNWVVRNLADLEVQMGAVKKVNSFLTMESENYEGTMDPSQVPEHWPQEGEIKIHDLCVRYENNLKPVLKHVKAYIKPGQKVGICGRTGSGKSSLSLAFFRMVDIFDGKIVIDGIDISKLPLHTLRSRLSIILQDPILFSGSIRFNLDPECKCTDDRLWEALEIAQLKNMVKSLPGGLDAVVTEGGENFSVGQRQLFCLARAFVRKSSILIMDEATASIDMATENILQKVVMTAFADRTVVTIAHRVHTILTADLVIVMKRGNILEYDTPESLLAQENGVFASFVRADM", "test": "Cloned cardiac ion channel electrophysiology, Kir6.1/SUR2B", "assay_type": "cell-based", "protocol": "page 24: APPENDIX 4- EQUATIONS %Inhibition = (1 - IIntervention/IControl) × 100 Equation 1 - Percentage Inhibition Inhibition of current (or leak-subtracted current) was calculated from steady-state current recorded in the absence (IControl) and presence of test-article (IIntervention). […]"}, "[4]": {"molecular_target": "T5, Kir3.4/4(S143F) channel mutant (Homo sapiens, UniProt P48544, S143F)", "T5 construct": "expressed in transfected cells; host or cells: Xenopus laevis oocytes (cRNA injection)", "T5 sequence (P48544 whole entry S143F, one chain of several)": "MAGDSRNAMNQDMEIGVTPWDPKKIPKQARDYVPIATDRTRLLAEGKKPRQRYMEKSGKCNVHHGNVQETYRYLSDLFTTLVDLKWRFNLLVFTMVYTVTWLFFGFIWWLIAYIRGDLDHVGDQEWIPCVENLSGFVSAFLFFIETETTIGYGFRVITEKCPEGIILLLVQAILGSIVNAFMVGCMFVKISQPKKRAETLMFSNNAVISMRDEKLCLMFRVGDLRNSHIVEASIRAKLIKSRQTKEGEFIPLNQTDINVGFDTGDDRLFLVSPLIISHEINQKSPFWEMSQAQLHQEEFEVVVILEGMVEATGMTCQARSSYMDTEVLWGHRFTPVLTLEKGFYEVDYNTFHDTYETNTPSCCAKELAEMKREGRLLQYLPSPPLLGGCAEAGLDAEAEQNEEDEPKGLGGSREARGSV", "test": "TEVC in Xenopus oocytes, Kir3.4/4(S143F)", "assay_type": "cell-based", "details": "read-out: IC50, inhibition of Kir3.4/4(S143F)"}, "Kir3.1(E141A/D173A)": {"molecular_target": "Kir3.1(E141A/D173A) (Homo sapiens, UniProt P48544+P48549, D173A/E141A)", "sequence (P48549 whole entry E141A/D173A, one chain of several)": "as the sequence (P48549 whole entry T143A, one chain of several) above, with E141A, A143T, D173A counted along it", "assay_type": "cell-based", "details": "1 μM, TEVC"}, "Kir3.1/4 channel": {"molecular_target": "T6, Kir3.1/4 channel (Homo sapiens, UniProt P48544+P48549)", "T6 sequence (P48549 1-501)": "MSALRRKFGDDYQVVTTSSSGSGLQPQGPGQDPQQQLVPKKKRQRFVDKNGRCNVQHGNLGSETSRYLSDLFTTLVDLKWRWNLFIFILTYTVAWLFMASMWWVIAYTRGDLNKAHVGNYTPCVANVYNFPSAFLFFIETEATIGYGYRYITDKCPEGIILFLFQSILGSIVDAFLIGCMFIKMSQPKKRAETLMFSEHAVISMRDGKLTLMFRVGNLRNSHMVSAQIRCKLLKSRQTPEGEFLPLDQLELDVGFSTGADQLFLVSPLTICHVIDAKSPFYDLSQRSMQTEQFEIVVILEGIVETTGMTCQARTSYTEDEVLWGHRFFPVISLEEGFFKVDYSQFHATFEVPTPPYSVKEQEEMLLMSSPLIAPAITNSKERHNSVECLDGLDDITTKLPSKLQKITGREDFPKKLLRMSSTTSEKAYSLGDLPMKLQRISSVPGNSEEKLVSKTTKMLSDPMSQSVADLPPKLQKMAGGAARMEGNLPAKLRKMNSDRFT", "T6 sequence (P48544 1-419)": "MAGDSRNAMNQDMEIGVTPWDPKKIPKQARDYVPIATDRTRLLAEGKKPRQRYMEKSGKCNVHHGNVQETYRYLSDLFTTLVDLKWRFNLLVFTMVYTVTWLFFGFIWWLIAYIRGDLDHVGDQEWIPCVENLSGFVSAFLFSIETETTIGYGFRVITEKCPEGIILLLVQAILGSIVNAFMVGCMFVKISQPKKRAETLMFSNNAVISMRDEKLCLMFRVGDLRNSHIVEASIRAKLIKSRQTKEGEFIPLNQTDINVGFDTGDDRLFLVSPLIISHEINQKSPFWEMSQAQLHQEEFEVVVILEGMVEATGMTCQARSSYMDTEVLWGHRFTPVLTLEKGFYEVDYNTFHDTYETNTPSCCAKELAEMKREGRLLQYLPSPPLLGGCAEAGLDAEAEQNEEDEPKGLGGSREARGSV", "test": "TEVC in Xenopus oocytes, Kir3.1/4", "assay_type": "cell-based", "parameters": "expressed in transfected cells; host or cells: Xenopus laevis oocytes (cRNA injection)", "protocol": "as §1"}, "[5]": {"test": "Plasma protein binding, human", "assay_type": "in vitro ADME", "details": "read-out: Human PPB (converted)"}}, "note": "Several values for one entry are separate records, joined by “and”; a condition that tells them apart may be missing. Equal values may be shown once. Entries after “also recorded” stand apart in the source; their conditions may differ. Read-outs that look alike come from different tables or passages of the source."}
{"smiles": "Cc1cc(CO)nc2cc3c(cc12)OC(C)(C)[C@H](O)[C@H]3NCCc1ccccc1", "note": "[BP-G1, (3R,4S)-7-(hydroxymethyl)-2,2,9-trimethyl-4-(2-phenylethylamino)-3,4-dihydropyrano[2,3-g]quinolin-3-ol]", "values": [{"measurement": "inhibition at 10 µM", "setting": "Histamine H2", "result": 35.5, "unit": "%"}, {"measurement": "block of Kir3.1(T143A)/4", "setting": "Kir3.1(T143A)/4", "result": "no significant reduction in BP-G1 block"}, {"measurement": "current block, Kir3.1(E141A)/4", "setting": "Kir3.1(E141A)/4", "result": 25, "unit": "%"}, {"measurement": "selectivity for Kir3.1-containing heteromers over other Kir channels", "setting": "[1]", "result": "strong inhibitory selectivity"}, {"measurement": "% Specific Binding at 10 µM", "setting": "Nav", "result": 65.1, "unit": "%"}, {"measurement": "% Specific Binding at 10 µM", "setting": "Nav; listed as Benzopyran-G1", "result": 65.100, "unit": "%"}, {"measurement": "inhibition of wild-type Kir3.4", "setting": "wild-type Kir3.4 channel", "result": "did not inhibit; also recorded: showed no block"}, {"measurement": "inhibition at 10 µM", "setting": "Adenosine A1", "result": 38.4, "unit": "%"}, {"measurement": "fraction unbound", "setting": "[2]", "result": 0.06}, {"measurement": "Co", "setting": "[3]; 1mg/kg iv.", "result": 3941, "unit": "ng/mL"}, {"measurement": "CL", "setting": "[3]; 5mg/kg po.", "result": 3.3, "unit": "mL/min/kg"}, {"measurement": "Kp", "setting": "[3]; rat, brain and plasma, 5mg/kg po., read-out: CNS Penetration (B:P)", "result": 0.2}, {"measurement": "Vd", "setting": "[3]; rat, in vivo, 1mg/kg iv.", "result": 1, "unit": "L/kg"}, {"measurement": "clearance", "setting": "[3]; rat, in vivo, 1mg/kg iv.", "result": 3.39, "unit": "mL/min/kg"}, {"measurement": "bioavailability", "setting": "[3]; rat, in vivo, 1mg/kg iv. / 5mg/kg po., read-out: Oral bioavailability F%", "result": 32, "unit": "%"}, {"measurement": "AUC(0-inf)", "setting": "[3]; rat, in vivo, 1mg/kg iv., read-out: Rat iv. AUC∞", "result": 4950, "unit": "ng·h/mL"}, {"measurement": "Cmax", "setting": "[3]; rat, in vivo, 5mg/kg po.", "result": 1190, "unit": "ng/mL"}, {"measurement": "AUC(0-t)", "setting": "[3]; rat, in vivo, 5mg/kg po., read-out: Rat p.o. AUCt", "result": 6420, "unit": "ng·h/mL"}, {"measurement": "AUC(0-inf)", "setting": "[3]; rat, in vivo, 5mg/kg po., read-out: Rat p.o. AUC∞", "result": 16800, "unit": "ng·h/mL"}, {"measurement": "half-life", "setting": "[3]; rat, in vivo, listed under 5mg/kg po.", "result": 12.2, "unit": "h"}, {"measurement": "IC50", "setting": "Kir6.1/SUR2B", "result": 9900, "unit": "nM"}, {"measurement": "IC50", "setting": "[4]", "result": 62.1, "unit": "nM"}, {"measurement": "current block, Kir3.1(E141A/D173A)", "setting": "Kir3.1(E141A/D173A)", "result": "abolished any current block; also recorded: abolished the block"}, {"measurement": "current block, wild-type Kir3.1/4", "setting": "Kir3.1/4 channel; 1 μM, TEVC", "result": "75 to 80", "unit": "%"}, {"measurement": "IC50", "setting": "Kir3.1/4 channel; TEVC oocyte experiments, read-out: IC50, inhibition of Kir3.1/4", "result": "55 nM and 55.9 nM"}, {"measurement": "fraction unbound", "setting": "[5]", "result": 0.03}]}
